Data published in ChEMBL document CHEMBL3421620, “A facile synthesis of novel miconazole analogues and the evaluation of their antifungal activity” (2015).
Values after ≈ are worked out from the molar mass of the structure shown. One block for each molecule: values may come before it.

Tests used:
Format in all cases: functional
Candida albicans [1] = assay: Antifungal activity against Candida albicans Strain 28 by broth microdilution method
Candida albicans [2] = assay: Antifungal activity against Candida albicans Strain 1 by broth microdilution method
Nakaseomyces glabratus = assay: Antifungal activity against Candida glabrata by broth microdilution method
Candida albicans [3] = assay: Antifungal activity against Candida albicans Strain 3 by broth microdilution method
Candida parapsilosis = assay: Antifungal activity against Candida parapsilosis by broth microdilution method; conditions: Lodderomyces parapsilosis
Candida tropicalis = assay: Antifungal activity against Candida tropicalis ATCC 13803 by broth microdilution method
Candida albicans [4] = assay: Antifungal activity against Candida albicans Strain 29 by broth microdilution method
Candida albicans [5] = assay: Antifungal activity against Candida albicans Strain 26 by broth microdilution method
Candida albicans [6] = assay: Antifungal activity against Candida albicans Strain 27 by broth microdilution method
Candida albicans [7] = assay: Antifungal activity against Candida albicans Strain 24 by broth microdilution method
Candida albicans [8] = assay: Antifungal activity against Candida albicans Strain 13 by broth microdilution method
Candida albicans [9] = assay: Antifungal activity against Candida albicans Strain 22 by broth microdilution method
Candida albicans [10] = assay: Antifungal activity against Candida albicans Strain 2 by broth microdilution method
Candida albicans [11] = assay: Antifungal activity against Candida albicans Strain 25 by broth microdilution method
Candida albicans [12] = assay: Antifungal activity against Candida albicans Strain 11 by broth microdilution method
Candida albicans [13] = assay: Antifungal activity against Candida albicans Strain 7 by broth microdilution method
Candida albicans [14] = assay: Antifungal activity against Candida albicans Strain 20 by broth microdilution method
Candida albicans [15] = assay: Antifungal activity against Candida albicans ATCC 10231 by broth microdilution method
Candida albicans [16] = assay: Antifungal activity against Candida albicans Strain 19 by broth microdilution method
Candida albicans [17] = assay: Antifungal activity against Candida albicans Strain 8 by broth microdilution method
Candida albicans [18] = assay: Antifungal activity against Candida albicans Strain 12 by broth microdilution method
Candida albicans [19] = assay: Antifungal activity against Candida albicans Strain 21 by broth microdilution method
Candida albicans [20] = assay: Antifungal activity against Candida albicans Strain 17 by broth microdilution method
Candida albicans [21] = assay: Antifungal activity against Candida albicans Strain 9 by broth microdilution method
Rhizopus arrhizus = assay: Antifungal activity against Rhizopus oryzae ATCC 10329 by broth microdilution method
[22] = Antifungal activity against Trichosporon cutaneum ATCC 28592 by broth microdilution method; conditions: Cutaneotrichosporon cutaneum
Mucor hiemalis = assay: Antifungal activity against Mucor hiemalis ATCC 8690 by broth microdilution method
Candida albicans [23] = assay: Antifungal activity against Candida albicans Strain 10 by broth microdilution method
Candida albicans [24] = assay: Antifungal activity against Candida albicans Strain 23 by broth microdilution method
Yarrowia lipolytica = assay: Antifungal activity against Candida lipolytica by broth microdilution method
Pichia kudriavzevii = assay: Antifungal activity against Candida krusei by broth microdilution method
Candida albicans [25] = assay: Antifungal activity against Candida albicans Strain 15 by broth microdilution method
Kluyveromyces marxianus = assay: Antifungal activity against Candida pseudotropicalis by broth microdilution method
Candida albicans [26] = assay: Antifungal activity against Candida albicans Strain 6 by broth microdilution method
Candida albicans [27] = assay: Antifungal activity against Candida albicans Strain 4 by broth microdilution method
Candida albicans [28] = assay: Antifungal activity against Candida albicans Strain 16 by broth microdilution method
Candida albicans [29] = assay: Antifungal activity against Candida albicans Strain 5 by broth microdilution method
Candida albicans [30] = assay: Antifungal activity against Candida albicans Strain 18 by broth microdilution method
Cyberlindnera jadinii = assay: Antifungal activity against Candida utilis ATCC 9226 by broth microdilution method; conditions: Williopsis jadinii
Candida albicans [31] = assay: Antifungal activity against Candida albicans Strain 14 by broth microdilution method
Aspergillus fumigatus = assay: Antifungal activity against Aspergillus fumigatus 16907 by broth microdilution method

MIC (Candida albicans [1]): 0.25 µg/mL (≈ 0.593 µM) | MIC (Candida albicans [2]): 0.5 µg/mL (≈ 1.19 µM) | MIC (Nakaseomyces glabratus): 0.5 µg/mL (≈ 1.19 µM) | MIC (Candida albicans [3]): 0.12 µg/mL (≈ 0.285 µM) | MIC (Candida parapsilosis): 2 µg/mL (≈ 4.75 µM) | MIC (Candida tropicalis): 1 µg/mL (≈ 2.37 µM) | MIC (Candida albicans [4]): 0.5 µg/mL (≈ 1.19 µM) | MIC (Candida albicans [5]): 0.5 µg/mL (≈ 1.19 µM) | MIC (Candida albicans [6]): 0.25 µg/mL (≈ 0.593 µM) | MIC (Candida albicans [7]): 0.5 µg/mL (≈ 1.19 µM) | MIC (Candida albicans [8]): 0.5 µg/mL (≈ 1.19 µM) | MIC (Candida albicans [9]): 0.12 µg/mL (≈ 0.285 µM) | MIC (Candida albicans [10]): 0.5 µg/mL (≈ 1.19 µM) | MIC (Candida albicans [11]): 0.5 µg/mL (≈ 1.19 µM) | MIC (Candida albicans [12]): 0.5 µg/mL (≈ 1.19 µM) | MIC (Candida albicans [13]): 0.5 µg/mL (≈ 1.19 µM) | MIC (Candida albicans [14]): 0.12 µg/mL (≈ 0.285 µM) | MIC (Candida albicans [15]): 0.12 µg/mL (≈ 0.285 µM) | MIC (Candida albicans [16]): 0.12 µg/mL (≈ 0.285 µM) | MIC (Candida albicans [17]): 0.12 µg/mL (≈ 0.285 µM) | MIC (Candida albicans [18]): 0.5 µg/mL (≈ 1.19 µM) | MIC (Candida albicans [19]): 0.5 µg/mL (≈ 1.19 µM) | MIC (Candida albicans [20]): 0.5 µg/mL (≈ 1.19 µM) | MIC (Candida albicans [21]): 0.5 µg/mL (≈ 1.19 µM) | MIC (Rhizopus arrhizus): > 16 µg/mL | MIC [22]: 16 µg/mL (≈ 38 µM) | MIC (Mucor hiemalis): > 16 µg/mL | MIC (Candida albicans [23]): 0.5 µg/mL (≈ 1.19 µM) | MIC (Candida albicans [24]): 0.12 µg/mL (≈ 0.285 µM) | MIC (Yarrowia lipolytica): 0.5 µg/mL (≈ 1.19 µM) | MIC (Pichia kudriavzevii): 2 µg/mL (≈ 4.75 µM) | MIC (Candida albicans [25]): 0.5 µg/mL (≈ 1.19 µM) | MIC (Kluyveromyces marxianus): 1 µg/mL (≈ 2.37 µM) | MIC (Candida albicans [26]): 0.12 µg/mL (≈ 0.285 µM) | MIC (Candida albicans [27]): 0.06 µg/mL (≈ 0.142 µM) | MIC (Candida albicans [28]): 0.12 µg/mL (≈ 0.285 µM) | MIC (Candida albicans [29]): 0.5 µg/mL (≈ 1.19 µM) | MIC (Candida albicans [30]): 0.06 µg/mL (≈ 0.142 µM) | MIC (Cyberlindnera jadinii): 1 µg/mL (≈ 2.37 µM) | MIC (Candida albicans [31]): 0.5 µg/mL (≈ 1.19 µM) | MIC (Aspergillus fumigatus): 4 µg/mL (≈ 9.49 µM)
SMILES: COc1ccc(CCOC(Cn2ccnc2)c2ccc(Cl)cc2Cl)cc1OC (stereo not drawn)

SMILES: CCC(C)n1ncn(-c2ccc(N3CCN(c4ccc(OCC5COC(Cn6cncn6)(c6ccc(Cl)cc6Cl)O5)cc4)CC3)cc2)c1=O (stereo not drawn) [ITRACONAZOLE]
MIC (Candida albicans [1]): 0.03 µg/mL (≈ 0.0425 µM) | MIC (Candida albicans [2]): 0.06 µg/mL (≈ 0.085 µM) | MIC (Nakaseomyces glabratus): 0.25 µg/mL (≈ 0.354 µM) | MIC (Candida albicans [3]): 0.03 µg/mL (≈ 0.0425 µM) | MIC (Candida parapsilosis): 0.25 µg/mL (≈ 0.354 µM) | MIC (Candida tropicalis): 0.06 µg/mL (≈ 0.085 µM) | MIC (Candida albicans [4]): 0.12 µg/mL (≈ 0.17 µM) | MIC (Candida albicans [5]): 0.12 µg/mL (≈ 0.17 µM) | MIC (Candida albicans [6]): 0.06 µg/mL (≈ 0.085 µM) | MIC (Candida albicans [7]): 0.03 µg/mL (≈ 0.0425 µM) | MIC (Candida albicans [8]): 0.06 µg/mL (≈ 0.085 µM) | MIC (Candida albicans [9]): 0.03 µg/mL (≈ 0.0425 µM) | MIC (Candida albicans [10]): 0.06 µg/mL (≈ 0.085 µM) | MIC (Candida albicans [11]): 0.12 µg/mL (≈ 0.17 µM) | MIC (Candida albicans [12]): 0.06 µg/mL (≈ 0.085 µM) | MIC (Candida albicans [13]): 0.06 µg/mL (≈ 0.085 µM) | MIC (Candida albicans [14]): 0.06 µg/mL (≈ 0.085 µM) | MIC (Candida albicans [15]): 0.06 µg/mL (≈ 0.085 µM) | MIC (Candida albicans [16]): 0.06 µg/mL (≈ 0.085 µM) | MIC (Candida albicans [17]): 0.03 µg/mL (≈ 0.0425 µM) | MIC (Candida albicans [18]): 0.12 µg/mL (≈ 0.17 µM) | MIC (Candida albicans [19]): 0.12 µg/mL (≈ 0.17 µM) | MIC (Candida albicans [20]): 0.12 µg/mL (≈ 0.17 µM) | MIC (Candida albicans [21]): 0.12 µg/mL (≈ 0.17 µM) | MIC (Rhizopus arrhizus): > 16 µg/mL | MIC [22]: 8 µg/mL (≈ 11.3 µM) | MIC (Mucor hiemalis): > 16 µg/mL | MIC (Candida albicans [23]): 0.06 µg/mL (≈ 0.085 µM) | MIC (Candida albicans [24]): 0.06 µg/mL (≈ 0.085 µM) | MIC (Yarrowia lipolytica): 0.12 µg/mL (≈ 0.17 µM) | MIC (Pichia kudriavzevii): 1 µg/mL (≈ 1.42 µM) | MIC (Candida albicans [25]): 0.06 µg/mL (≈ 0.085 µM) | MIC (Kluyveromyces marxianus): 0.25 µg/mL (≈ 0.354 µM) | MIC (Candida albicans [26]): 0.06 µg/mL (≈ 0.085 µM) | MIC (Candida albicans [27]): 0.03 µg/mL (≈ 0.0425 µM) | MIC (Candida albicans [28]): 0.06 µg/mL (≈ 0.085 µM) | MIC (Candida albicans [29]): 0.06 µg/mL (≈ 0.085 µM) | MIC (Candida albicans [30]): 0.03 µg/mL (≈ 0.0425 µM) | MIC (Cyberlindnera jadinii): 0.5 µg/mL (≈ 0.709 µM) | MIC (Candida albicans [31]): 0.06 µg/mL (≈ 0.085 µM) | MIC (Aspergillus fumigatus): 1 µg/mL (≈ 1.42 µM)

MIC (Candida albicans [1]): 0.12 µg/mL (≈ 0.318 µM) | MIC (Candida albicans [2]): 0.12 µg/mL (≈ 0.318 µM) | MIC (Nakaseomyces glabratus): 0.5 µg/mL (≈ 1.33 µM) | MIC (Candida albicans [3]): 0.12 µg/mL (≈ 0.318 µM) | MIC (Candida parapsilosis): 1 µg/mL (≈ 2.65 µM) | MIC (Candida tropicalis): 0.5 µg/mL (≈ 1.33 µM) | MIC (Candida albicans [4]): 0.5 µg/mL (≈ 1.33 µM) | MIC (Candida albicans [5]): 0.25 µg/mL (≈ 0.663 µM) | MIC (Candida albicans [6]): 0.12 µg/mL (≈ 0.318 µM) | MIC (Candida albicans [7]): 0.12 µg/mL (≈ 0.318 µM) | MIC (Candida albicans [8]): 0.12 µg/mL (≈ 0.318 µM) | MIC (Candida albicans [9]): 0.12 µg/mL (≈ 0.318 µM) | MIC (Candida albicans [10]): 0.12 µg/mL (≈ 0.318 µM) | MIC (Candida albicans [11]): 0.12 µg/mL (≈ 0.318 µM) | MIC (Candida albicans [12]): 0.25 µg/mL (≈ 0.663 µM) | MIC (Candida albicans [13]): 0.12 µg/mL (≈ 0.318 µM) | MIC (Candida albicans [14]): 0.06 µg/mL (≈ 0.159 µM) | MIC (Candida albicans [15]): 0.12 µg/mL (≈ 0.318 µM) | MIC (Candida albicans [16]): 0.12 µg/mL (≈ 0.318 µM) | MIC (Candida albicans [17]): 0.12 µg/mL (≈ 0.318 µM) | MIC (Candida albicans [18]): 0.12 µg/mL (≈ 0.318 µM) | MIC (Candida albicans [19]): 0.25 µg/mL (≈ 0.663 µM) | MIC (Candida albicans [20]): 0.12 µg/mL (≈ 0.318 µM) | MIC (Candida albicans [21]): 0.5 µg/mL (≈ 1.33 µM) | MIC (Rhizopus arrhizus): > 16 µg/mL | MIC [22]: 16 µg/mL (≈ 42.4 µM) | MIC (Mucor hiemalis): > 16 µg/mL | MIC (Candida albicans [23]): 0.12 µg/mL (≈ 0.318 µM) | MIC (Candida albicans [24]): 0.25 µg/mL (≈ 0.663 µM) | MIC (Yarrowia lipolytica): 0.25 µg/mL (≈ 0.663 µM) | MIC (Pichia kudriavzevii): 1 µg/mL (≈ 2.65 µM) | MIC (Candida albicans [25]): 0.25 µg/mL (≈ 0.663 µM) | MIC (Kluyveromyces marxianus): 0.5 µg/mL (≈ 1.33 µM) | MIC (Candida albicans [26]): 0.12 µg/mL (≈ 0.318 µM) | MIC (Candida albicans [27]): 0.12 µg/mL (≈ 0.318 µM) | MIC (Candida albicans [28]): 0.12 µg/mL (≈ 0.318 µM) | MIC (Candida albicans [29]): 0.12 µg/mL (≈ 0.318 µM) | MIC (Candida albicans [30]): 0.06 µg/mL (≈ 0.159 µM) | MIC (Cyberlindnera jadinii): 0.5 µg/mL (≈ 1.33 µM) | MIC (Candida albicans [31]): 0.12 µg/mL (≈ 0.318 µM) | MIC (Aspergillus fumigatus): 4 µg/mL (≈ 10.6 µM)
SMILES: OCc1ccc(COC(Cn2ccnc2)c2ccc(Cl)cc2Cl)cc1 (stereo not drawn)
